A short description of data set [1]: Pharmacokinetic study in rats, single intramuscular injection, plasma prodrug and parent drug by LC-MS/MS. The data set is classed as in vivo, Sprague-Dawley rats. On the procedure: General Procure: The formulations of opioid ester prodrugs are prepared to provide 180 mg/ml suspension by adding 1.8 g of prodrug to a 50 ml glass vial. To the solids is added […] of injection vehicle (2-3% sodium CMC, 0.2% polysorbate 20 in phosphate buffered saline (PBS) pH 7). The resulting mixture is sonicated for 10 min and left standing. The contents of the vial is then shaken until a uniform, clump-free suspension is obtained prior to dosing.
Twelve male Male Sprague-Dawley rats with a body weight approximately 250 g are used in the study. A single intramuscular injection of ester prodrug (180 mg) is administered to rats. Blood samples is collected at 0 (pretreatment) 0.5, 1, 2, 4, 8, 12 and 24 days after administration. Blood is collected with commercially available plastic tubes containing a clot activator. Within 10 min of collection, blood is centrifugation at 2.500 g for 10 min. Plasma is separated and frozen at −18° C. until analyzed by LC-MS/MS. Both prodrug and its corresponding parent drug are analyzed. The pharmacokinetic parameters (AUC, Tmax, Cmax, T1/2, etc) of the test articles are compared to compare the performance of prodrugs to their parent drugs.
Pharmacokinetic Studies for Compounds 2, 3, and 7. Pharmacokinetic studies were conducted for three compounds (Compounds 2, 3 and 7) in rats. The formulations were prepared either in sesame oil (Compound 2, 100 mg eq/mL) or aqueous suspension (Compounds 3 and 7, 100 mg eq/mL and 60 mg eq/mL, respectively). The dosage “eq” refers to the equivalent dosing amount of the respective parent drug, e.g., oxymorphone or hydromorphone in this Example. The sesame oil formulation contains 1.2% benzyl alcohol. The suspension formulation was prepared in PBS buffer containing 2% CMC and 0.2% Tween 80. The particle sizes of the testing compounds in suspension were kept under 10 micron. Both oil and suspension formulations were sterilized by electronic beam before administered to Sprague-Dawley rats.
Twelve Male Sprague-Dawley rats with body weight of approximately 250 gram were randomly divided into three groups. The rats were housed in cages for at least 5 days prior to entering the study and had free access to standard pellets and water during the period. The formulations (0.05 mL) were administered to rats by intra muscular injection via hind leg. Blood (0.10 mL) was sampled by individual tail vein puncture at the following time points: 0.5, 2, 8 hours, 1, 3, 6, 13, 27 days post-dose. Blood was collected into K2EDTA coated tubes and centrifuged at 4° C. at 2000 g in for 10 min to obtain plasma. Plasma (0.05 mL) was immediately quenched with 100 uL methanol/acetonitrile (1:1) containing 50 ng/mL ISTD (Terfenadine and Buspirone). The mixture was vortexed for 1 min and centrifuged at 4000 rpm for 15 min. Supernatant was diluted 2 fold with 0.1% FA in water for injection. Both prodrug and the drug were analyzed using LC-MS/MS on AB Sciex API 5500. The pharmacokinetic parameters were calculated and reported as following.

For data set [2] the following is noted: monomeric fatty acid, aqueous; Vorum et al. 1992; cited from earlier work.
The mark [3] stands for this setting: analyte prodrug Compound 3 in plasma, Compound 3 IM 119.14 mg/kg, aqueous suspension, N = 4, mean.
The mark [4] stands for this setting: oxymorphone / Compound 3, Compound 3 IM 119.14 mg/kg, N = 4, mean.
[5] abbreviates: analyte prodrug Compound 2 in plasma, Compound 2 IM 29.7 mg/kg, sesame oil formulation, Rat #14.
[6] abbreviates: analyte prodrug Compound 2 in plasma, Compound 2 IM 118.11 mg/kg, sesame oil formulation, Rat #1-3, mean.
Setting [7] is: oxymorphone / Compound 2, Compound 2 IM 29.7 mg/kg, Rat #14.
The mark [8] stands for this setting: oxymorphone / Compound 2, Compound 2 IM 118.11 mg/kg, Rat #1-3, mean.
The mark [9] stands for this setting: analyte prodrug Compound 7 in plasma, Compound 7 IM 102.5 mg/kg, aqueous suspension, N = 4, mean.
Setting [10] is: male, Sprague-Dawley, rat, analyte prodrug Compound 7 in plasma, Compound 7 IM 102.5 mg/kg, aqueous suspension, N = 4, mean.

This is an account of results in patent publication US11254685B2, “Abuse-resistant long-acting release opioid prodrugs” (priority 2017, dated 2022).

What is called Cmax is the peak of the concentration-time curve. As a reminder, the solubility is the concentration that dissolves in the medium under given conditions. The term AUC(0-inf) denotes total exposure, with the tail of the curve extrapolated. One may read the AUC(0-t) as the area under the concentration-time curve up to a stated or last time point. As usually defined, the MRT inf is the average time that molecules of a dose stay in the body. For orientation: half-life means how long it takes for the measured level to halve.

Where two headings read alike, the source gives them in different places.

As for Oxymorphone eicosanate [Compound 3], the “AUC Extr” value in data set [1] (analyte parent drug oxymorphone in plasma, Compound 3 IM 119.14 mg/kg, aqueous suspension, N = 4, mean) is on record as 63.7%. Also, in data set [1] (setting [3]), the “AUC Extr” value amounted to 29.9%, the AUCInf worked out at 2355 ng·h/mL, the AUCInf/D was 19.8 kg·ng·h/mL/mg and the AUClast was determined as 1711 ng·h/mL. Further, in data set [1] (setting [3]), the Cmax is given as 4.79 ng/mL, the MRTInf is 484 h, the t1/2 stood at 263 h and the tmax turned out to be 212 h. Besides, in data set [1] (setting [4]), the “AUClast Ratio (Parent/Pro)” value was 4.44 and the “Cmax Ratio (Parent/Pro)” value is given as 3.22.
For the molecule Oxymorphone hexadecanate [Compound 2], the “AUC Extr” value in data set [1] (analyte parent drug oxymorphone in plasma, Compound 2 IM 29.7 mg/kg, sesame oil formulation, Rat #14) is reported as 0.99%. Besides, in data set [1] (analyte parent drug oxymorphone in plasma, Compound 2 IM 118.11 mg/kg, sesame oil formulation, Rat #1-3, mean), the “AUC Extr” value stood at 5.71%. In addition, in data set [1] (setting [5]), the “AUC Extr” value amounted to 42.6%, the AUCInf came to 30.3 ng·h/mL, the AUCInf/D turned out to be 1.02 kg·ng·h/mL/mg and the AUClast was found to be 17.4 ng·h/mL. Also, in data set [1] (setting [5]), the Cmax is given as 0.54 ng/mL, the MRTInf turned out to be 108 h, the t1/2 worked out at 76 h and the tmax came to 2.00 h. In data set [1] (setting [6]), the “AUC Extr” value is recorded as 39.8%, the AUCInf amounted to 101 ng·h/mL, the AUCInf/D was 0.857 kg·ng·h/mL/mg and the AUClast amounted to 51.3 ng·h/mL. Further, in data set [1] (setting [6]), the highest concentration (Cmax) is reported as 1.62 ng/mL, the MRTInf worked out at 156 h, the t1/2 was 130 h and the tmax was 3.50 h. Moreover, in data set [1] (setting [7]), the “AUClast Ratio (Parent/Pro)” value is 151 and the “Cmax Ratio (Parent/Pro)” value stood at 21. Further, in data set [1] (setting [8]), the “AUClast Ratio (Parent/Pro)” value was 161 and the “Cmax Ratio (Parent/Pro)” value stood at 63.7.
`CCCCCCCCCCCCCC(=O)O` [myristate]: the solubility in data set [2] was 20 to 30 µM.
In the case of `CCCCCCCCCCCCCCCCCCCC(=O)Oc1ccc2c3c1O[C@H]1C(=O)CC[C@H]4[C@@H](C2)N(C)CC[C@]314` [Compound 7, Hydromorphone eicosanate], in data set [1] (setting [9]), the “AUC Extr” value came out at 4.36% and the AUCInf/D stood at 27.8 kg·ng·h/mL/mg. For the same molecule, in data set [1] (setting [10]), the AUC(0-inf) was 2850 ng·h/mL, the AUC(0-t) was 2760 ng·h/mL, the MRT inf came out at 138 h and the half-life was 64.4 h. Also, the Cmax in data set [1] (male, Sprague-Dawley, rat, analyte prodrug Compound 7 in plasma, Compound 7 IM 102.5 mg/kg, aqueous suspension, N = 4, mean, read-out: Cmax) came to 45.6 ng/mL. The tmax in data set [1] (male, Sprague-Dawley, rat, analyte prodrug Compound 7 in plasma, Compound 7 IM 102.5 mg/kg, aqueous suspension, N = 4, mean, read-out: tmax) came out at 6.13 h.
Take `CCCCCCCCCCCC(=O)O` [laurate]: the solubility result in data set [2] was “greater than 500 μM”.
